Results from patent US20140093498A1, “PHARMACEUTICAL COMBINATIONS COMPRISING DUAL ANGIOPOIETIN-2 / DLL4 BINDERS AND ANTI-VEGF-R AGENTS” (BOEHRINGER INGELHEIM INTERNATIONAL GMBH, priority 2012, published 2014).

Key:
[1] = tested on: human non-small cell lung cancer (NCI-H1975); assay: Subcutaneous NCI-H1975 xenograft tumor growth in nude mice; type: in vivo; conditions: day 14, 2.5 cycles; Bevacizumab 25 mg/kg i.p. twice weekly, BIBF 1120 50 mg/kg p.o. daily, BI-1 13.6 mg/kg i.p. twice weekly
Text: The goal of the present study was to assess the efficacy of BI-1 in combination with Bevacizumab and BIBF 1120 in a model of human non small cell lung cancer (NCI-H1975) in nude mice.
• Model: Subcutaneous xenografts of the human non-small cell lung cancer (NCI-H1975) growing in nude mice
BI-1 with the sample ID number D11B20V503 was used for this experiment and diluted with PBS. BIBF 1120 with the batch chiffre 133562 was suspended in Natrosol 0.5% (Hydroxyethylcellulose Natrosol 250 HX, VWR).
Avastin® (Bevacizumab, 25 mg/ml) was purchased from Roche (Basel, Switzerland), (dissolved in 0.9% saline) was diluted with 0.9% saline.
Mice were 7 week-old female BomTac:NMRI-Foxn1nu purchased from Taconic, Denmark. After arrival, mice were allowed to adjust to ambient conditions for at least 5 days before they were used for the experiments. […]
(§1) The doses of BI-1 and Bevacizumab were calculated to the average body weight of all mice on day 1 (28 g) and administered intraperitoneally twice weekly in a volume of 100 μl per mouse. […]
Tumor diameters were measured three times a week (Monday, Wednesday and Friday) with a caliper. The volume of each tumor [in mm3] was calculated according to the formula “tumor volume=length*diameter2*π/6.” To monitor side effects of treatment, mice were inspected daily for abnormalities and body weight was determined three times a week (Monday, Wednesday and Friday). […]

colon cancer (CXF 243) = assay: CXF 243 patient-derived tumor xenograft growth in nude mice; type: in vivo; conditions: BI-1 13.6 mg/kg i.p. twice weekly, BIBF1120 50 mg/kg p.o. once daily, Bevacizumab 15 mg/kg i.p. twice weekly
Text: (§2) The goal of the present study was to assess the efficacy of BI-1 in combination with Bevacizumab, BIBF1120 or Sunitinib in models of human non small cell lung cancer (LXFE 211, LXFE 1422), colon cancer (CXF 243), mammary cancer (MAXF 401), ovarian cancer (OVXF 1353), pancreatic cancer (PAXF 546) and renal cancer (RXF 1220) in nude mice. All models were patient-derived tumor xenografts (PDX), which were transplanted from patients to nude mice and passaged subcutaneously. These models retain most of the characteristics of the parental patient tumors including histology.
(§3) BI-1 with the sample ID number D11B20V503 was used for this experiment and diluted with PBS. BIBF1120 with the batch chiffre 133562 was suspended in Natrosol 0.5% (Hydroxyethylcellulose Natrosol 250 HX, VWR). […]
(§4) Tumor fragments were obtained from tumor xenografts in serial passage in nude mice. […] Mice were monitored daily. […]
as §1
(§5) Tumor diameters were measured twice weekly with a caliper. The volume of each tumor [in mm^3] was calculated according to the formula “tumor volume=length*diameter^2*0.5.” To monitor side effects of treatment, mice were inspected daily for abnormalities and body weight was determined twice weekly. […]

[2] = tested on: human non small cell lung cancer (LXFE 211); assay: LXFE 211 patient-derived tumor xenograft growth in nude mice; type: in vivo; conditions: BI-1 13.6 mg/kg i.p. twice weekly, BIBF1120 50 mg/kg p.o. once daily, Bevacizumab 15 mg/kg i.p. twice weekly
Text: as §2, §3, §4, §1, §5

[3] = tested on: human non small cell lung cancer (LXFE 1422); assay: LXFE 1422 patient-derived tumor xenograft growth in nude mice; type: in vivo; conditions: BI-1 13.6 mg/kg i.p. twice weekly, BIBF1120 50 mg/kg p.o. once daily, Bevacizumab 15 mg/kg i.p. twice weekly
Text: as §2, §3, §4, §1, §5

[4] = tested on: mammary cancer (MAXF 401); assay: MAXF 401 patient-derived tumor xenograft growth in nude mice; type: in vivo; conditions: BI-1 13.6 mg/kg i.p. twice weekly, BIBF1120 50 mg/kg p.o. once daily, Bevacizumab 15 mg/kg i.p. twice weekly
Text: as §2, §3, §4, §1, §5

[5] = tested on: ovarian cancer (OVXF 1353); assay: OVXF 1353 patient-derived tumor xenograft growth in nude mice; type: in vivo; conditions: BI-1 13.6 mg/kg i.p. twice weekly, BIBF1120 50 mg/kg p.o. once daily
Text: as §2, §3, §4, §1, §5

[6] = tested on: pancreatic cancer (PAXF 546); assay: PAXF 546 patient-derived tumor xenograft growth in nude mice; type: in vivo; conditions: BI-1 13.6 mg/kg i.p. twice weekly, BIBF1120 50 mg/kg p.o. once daily, Bevacizumab 15 mg/kg i.p. twice weekly
Text: as §2, §3, §4, §1, §5

[7] = Body weight losses and deaths in PDX tumor-bearing mice; parameters: species or system nude mice; conditions: mouse, in vivo
Experimental: Tumor diameters were measured twice weekly with a caliper. The volume of each tumor [in mm^3] was calculated according to the formula “tumor volume=length*diameter^2*0.5.” To monitor side effects of treatment, mice were inspected daily for abnormalities and body weight was determined twice weekly. Animals with tumor sizes exceeding 1.5 cm in diameter or 20% body weight loss were euthanized for ethical reasons.

renal cancer (RXF 1220) = assay: RXF 1220 patient-derived tumor xenograft growth in nude mice; type: in vivo; conditions: BI-1 13.6 mg/kg i.p. twice weekly, Sunitinib 40 mg/kg once daily, Bevacizumab 15 mg/kg i.p. twice weekly
Text: as §2, §3, §4, §1, §5

Molecule | median TGI [1] [%] | TGI [%] (colon cancer (CXF 243)) | TGI [%] [2] [%] | TGI [%] [3] [%] | TGI [%] [4] [%] | TGI [%] [5] [%] | TGI [%] [6] [%] | maximum median body weight loss [7] [%] | TGI [%] (renal cancer (RXF 1220))
CCS(=O)(=O)O.COC(=O)c1ccc2c(c1)NC(=O)/C2=C(\Nc1ccc(N(C)C(=O)CN2CCN(C)CC2)cc1)c1ccccc1 [BIBF1120, 3-Z-[1-(4-(N-((4-methyl-piperazin-1-yl)-methylcarbonyl)-N-methyl-amino)-anilino)-1-phenyl-methylen]-6-methoxycarbonyl-2-indolinon-monoethanesulfonate] | 75 | 65 | 40 | 57 | 63 | 78 | 69 | 5.9 | 
CCN(CC)CCNC(=O)c1c(C)[nH]c(/C=C2\C(=O)Nc3ccc(F)cc32)c1C [Sunitinib] |  |  |  |  |  |  |  |  | 62
Bevacizumab: VEGF-neutralizing antibody A4.6.1, also called bevacizumab (Avastin®) | 82 |  | 37 | 63 | 68 |  | 59 | 9.1 | 
